{
  "source": "patent US11758905B2",
  "about": "“Amphotericin B and β-1,3-glucanase loaded bi-functional nano-system with both targets, preparation method and application thereof” (QINGDAO AGRICULTURAL UNIVERSITY, priority 2021, dated 2023)",
  "type_in_all_cases": "cell-based",
  "key": {"Candida albicans BF 1": {"system": "Candida albicans BF 1", "test": "Minimum inhibitory concentration determination", "details": "clinical isolate BF 1; 24 h, 37° C.", "method": "(§1) Fungus strain: Candida albicans DAY185; 3 clinical isolates of Candida albicans, obtained from Medical University of Vienna, named as Candida albicans BF 1, BF 2 and BF 3.\n(§2) 100 μl of Candida albicans (1×10^6 CFU/mL) is added to a 96-pore plate containing different concentrations (2, 1, 0.5, 0.25, 0.125, 0.0625 or 0 μg/mL) of free AmpB and CSNP-AmpB-Gls. The micropore plate is rotated at a rotation speed of 150 rpm and incubated at 37° C. for 24 h. The minimum inhibitory concentration is defined as the minimum AmpB concentration at which visible growth cannot be detected."}, "Candida albicans BF 2": {"system": "Candida albicans BF 2", "test": "Minimum inhibitory concentration determination", "details": "clinical isolate BF 2; 24 h, 37° C.", "method": "as §1, §2"}, "Candida albicans BF 3": {"system": "Candida albicans BF 3", "test": "Minimum inhibitory concentration determination", "details": "clinical isolate BF 3; 24 h, 37° C.", "method": "as §1, §2"}, "Candida albicans DAY185": {"system": "Candida albicans DAY185", "test": "Minimum inhibitory concentration determination", "details": "strain DAY 185; 24 h, 37° C.; minimum AmpB concentration without visible growth", "method": "as §1, §2"}, "[1]": {"system": "Candida albicans biofilm on silica gel", "test": "Influence on medical silica gel surface biofilm (CLSM viable/dead staining, SEM)", "method": "The biofilm on a silica gel is treated by free AmpB and NPs by following the method described above. The biofilm structure is studied through a scanning electron microscope. The biofilm survivability is observed with CLSM, and viable/dead fungus staining kit is used for staining, […]"}},
  "data": [
    {"compound": "C[C@@H]1[C@H](O)[C@@H](C)/C=C/C=C/C=C/C=C/C=C/C=C/C=C/[C@H](O[C@@H]2O[C@H](C)[C@@H](O)[C@H](N)[C@@H]2O)C[C@@H]2O[C@](O)(C[C@@H](O)C[C@@H](O)[C@H](O)CC[C@@H](O)C[C@@H](O)CC(=O)O[C@H]1C)C[C@H](O)[C@H]2C(=O)O", "note": "[AmpB, amphotericin B]", "values": [
      {"measurement": "AmpB MIC", "setting": "Candida albicans BF 1", "value": 2, "unit": "µg/mL"},
      {"measurement": "AmpB MIC", "setting": "Candida albicans BF 2", "value": 2, "unit": "µg/mL"},
      {"measurement": "AmpB MIC", "setting": "Candida albicans BF 3", "value": 4, "unit": "µg/mL"},
      {"measurement": "AmpB MIC", "setting": "Candida albicans DAY185", "value": 1, "unit": "µg/mL"},
      {"measurement": "biofilm structure change by SEM", "setting": "[1]; silica gel, FIG. 6", "value": "significantly reduces fungus colonization"},
      {"measurement": "cell viability of the biofilm on silica gel by CLSM", "setting": "[1]; viable/dead staining, FIG. 5", "value": "green (viable cells) is significantly reduced"}
    ]}
  ]
}
